Results from PubChem BioAssay (NCI).
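Dose response: 5 concentrations. Exposure: 48 h. Format: 96-well plates. Endpoint: linear interpolation; highest concentration if not reached. TGI marks complete inhibition of growth.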

How the values were obtained:
Test in all cases: inhibition of tumour cell growth, NCI panel, 48 h
HCT-116 colon = system: HCT-116 colon
HL-60(TB) leukemia = system: HL-60(TB) leukemia
A498 renal = system: A498 renal
IGROV1 ovarian = system: IGROV1 ovarian
OVCAR-4 ovarian = system: OVCAR-4 ovarian
MDA-N = system: MDA-N
ACHN renal = system: ACHN renal
SW-620 colon = system: SW-620 colon
HCT-15 colon = system: HCT-15 colon
T-47D breast = system: T-47D breast
SK-OV-3 ovarian = system: SK-OV-3 ovarian
BT-549 breast = system: BT-549 breast
TK-10 renal = system: TK-10 renal
COLO 205 colon = system: COLO 205 colon
NCI-H522 lung = system: NCI-H522 lung
RPMI-8226 leukemia = system: RPMI-8226 leukemia
HCC-2998 colon = system: HCC-2998 colon
786-0 renal = system: 786-0 renal
MOLT-4 leukemia = system: MOLT-4 leukemia
SF-539 CNS = system: SF-539 CNS
SF-295 CNS = system: SF-295 CNS
SF-268 CNS = system: SF-268 CNS
RXF 393 renal = system: RXF 393 renal
NCI-H226 lung = system: NCI-H226 lung
HS 578T breast = system: HS 578T breast
OVCAR-5 ovarian = system: OVCAR-5 ovarian
SNB-75 CNS = system: SNB-75 CNS
UO-31 renal = system: UO-31 renal
A549 NSCLC = system: A549 NSCLC
HOP-62 NSCLC = system: HOP-62 NSCLC
SNB-19 CNS = system: SNB-19 CNS
UACC-257 melanoma = system: UACC-257 melanoma
SN12C renal = system: SN12C renal
NCI-H460 lung = system: NCI-H460 lung
OVCAR-8 ovarian = system: OVCAR-8 ovarian
U251 CNS = system: U251 CNS
MCF7 breast = system: MCF7 breast
MALME-3M melanoma = system: MALME-3M melanoma
SR leukemia = system: SR leukemia
KM12 colon = system: KM12 colon
MDA-MB-435 = system: MDA-MB-435
CAKI-1 renal = system: CAKI-1 renal
DU-145 prostate = system: DU-145 prostate
NCI-H23 lung = system: NCI-H23 lung
NCI/ADR-RES ovarian = system: NCI/ADR-RES ovarian
HT29 colon = system: HT29 colon
LOX IMVI melanoma = system: LOX IMVI melanoma
K-562 leukemia = system: K-562 leukemia
CCRF-CEM leukemia = system: CCRF-CEM leukemia
SK-MEL-5 melanoma = system: SK-MEL-5 melanoma
M14 melanoma = system: M14 melanoma
SK-MEL-28 melanoma = system: SK-MEL-28 melanoma
PC-3 prostate = system: PC-3 prostate
HOP-92 NSCLC = system: HOP-92 NSCLC
SK-MEL-2 melanoma = system: SK-MEL-2 melanoma
EKVX NSCLC = system: EKVX NSCLC
UACC-62 melanoma = system: UACC-62 melanoma
OVCAR-3 ovarian = system: OVCAR-3 ovarian
MDA-MB-231 breast = system: MDA-MB-231 breast

OC(CC(c1ccccc1)c1ccc(Cl)cc1)c1ccc(Cl)cc1 (stereo not given)
TGI (HCT-116 colon): > 100 µM | TGI (HL-60(TB) leukemia): 64.6 µM | TGI (A498 renal): 69.1 µM | TGI (IGROV1 ovarian): > 100 µM | TGI (OVCAR-4 ovarian): > 100 µM | TGI (MDA-N): > 100 µM | TGI (ACHN renal): 77.6 µM | TGI (SW-620 colon): > 100 µM | TGI (HCT-15 colon): > 100 µM | TGI (T-47D breast): 88.4 µM | TGI (SK-OV-3 ovarian): 90.8 µM | TGI (BT-549 breast): > 100 µM | TGI (TK-10 renal): > 100 µM | TGI (COLO 205 colon): 34.8 µM | TGI (NCI-H522 lung): 69.1 µM | TGI (RPMI-8226 leukemia): 70 µM | TGI (HCC-2998 colon): > 100 µM | TGI (786-0 renal): > 100 µM | TGI (MOLT-4 leukemia): > 100 µM | TGI (SF-539 CNS): > 100 µM | TGI (SF-295 CNS): 92 µM | TGI (SF-268 CNS): > 100 µM | TGI (RXF 393 renal): 65.8 µM | TGI (NCI-H226 lung): 97.5 µM | TGI (HS 578T breast): > 100 µM | TGI (OVCAR-5 ovarian): 62 µM | TGI (SNB-75 CNS): 81.8 µM | TGI (UO-31 renal): > 100 µM | TGI (A549 NSCLC): > 100 µM | TGI (HOP-62 NSCLC): 91.4 µM | TGI (SNB-19 CNS): > 100 µM | TGI (UACC-257 melanoma): > 100 µM | TGI (SN12C renal): > 100 µM | TGI (NCI-H460 lung): > 100 µM | TGI (OVCAR-8 ovarian): > 100 µM | TGI (U251 CNS): > 100 µM | TGI (MCF7 breast): 86.2 µM | TGI (MALME-3M melanoma): 79.1 µM | TGI (SR leukemia): 73.5 µM | TGI (KM12 colon): > 100 µM | TGI (MDA-MB-435): 91.5 µM | TGI (CAKI-1 renal): > 100 µM | TGI (DU-145 prostate): > 100 µM | TGI (NCI-H23 lung): 87.8 µM | TGI (NCI/ADR-RES ovarian): 95.2 µM | TGI (HT29 colon): > 100 µM | TGI (LOX IMVI melanoma): 77.2 µM | TGI (K-562 leukemia): > 100 µM | TGI (CCRF-CEM leukemia): > 100 µM | TGI (SK-MEL-5 melanoma): 88.1 µM | TGI (M14 melanoma): > 100 µM | TGI (SK-MEL-28 melanoma): > 100 µM | TGI (PC-3 prostate): > 100 µM | TGI (HOP-92 NSCLC): 64.2 µM | TGI (SK-MEL-2 melanoma): 49.8 µM | TGI (EKVX NSCLC): 74.7 µM | TGI (UACC-62 melanoma): > 100 µM | TGI (OVCAR-3 ovarian): 81.6 µM

COc1ccc(Cn2nc(OCc3ccccn3)c3cc([N+](=O)[O-])ccc32)cc1
TGI (HL-60(TB) leukemia): > 100 µM | TGI (A498 renal): > 100 µM | TGI (IGROV1 ovarian): > 100 µM | TGI (MDA-N): > 100 µM | TGI (ACHN renal): > 100 µM | TGI (SW-620 colon): > 100 µM | TGI (HCT-15 colon): > 100 µM | TGI (T-47D breast): > 100 µM | TGI (SK-OV-3 ovarian): > 100 µM | TGI (BT-549 breast): > 100 µM | TGI (TK-10 renal): > 100 µM | TGI (NCI-H522 lung): > 100 µM | TGI (RPMI-8226 leukemia): > 100 µM | TGI (HCC-2998 colon): > 100 µM | TGI (786-0 renal): > 100 µM | TGI (MOLT-4 leukemia): > 100 µM | TGI (SF-539 CNS): > 100 µM | TGI (SF-295 CNS): > 100 µM | TGI (SF-268 CNS): > 100 µM | TGI (RXF 393 renal): > 100 µM | TGI (NCI-H226 lung): > 100 µM | TGI (HS 578T breast): > 100 µM | TGI (OVCAR-5 ovarian): > 100 µM | TGI (MDA-MB-231 breast): > 100 µM | TGI (UO-31 renal): > 100 µM | TGI (A549 NSCLC): > 100 µM | TGI (HOP-62 NSCLC): > 100 µM | TGI (SNB-19 CNS): > 100 µM | TGI (UACC-257 melanoma): > 100 µM | TGI (SN12C renal): > 100 µM | TGI (NCI-H460 lung): > 100 µM | TGI (OVCAR-8 ovarian): > 100 µM | TGI (MCF7 breast): > 100 µM | TGI (MALME-3M melanoma): > 100 µM | TGI (SR leukemia): > 100 µM | TGI (KM12 colon): > 100 µM | TGI (MDA-MB-435): > 100 µM | TGI (CAKI-1 renal): > 100 µM | TGI (DU-145 prostate): > 100 µM | TGI (NCI-H23 lung): > 100 µM | TGI (NCI/ADR-RES ovarian): > 100 µM | TGI (HT29 colon): > 100 µM | TGI (LOX IMVI melanoma): > 100 µM | TGI (K-562 leukemia): > 100 µM | TGI (CCRF-CEM leukemia): > 100 µM | TGI (SK-MEL-5 melanoma): > 100 µM | TGI (M14 melanoma): > 100 µM | TGI (SK-MEL-28 melanoma): > 100 µM | TGI (PC-3 prostate): > 100 µM | TGI (SK-MEL-2 melanoma): > 100 µM | TGI (UACC-62 melanoma): > 100 µM | TGI (OVCAR-3 ovarian): > 100 µM
